Experimental data taken from patent US20120052079A1, “Compositions, Kits, and Methods for Predicting Anti-Cancer Response to Anthracyclines” (Dana-Farber Cancer Institute, Inc., priority 2010, published 2012).

Key:
Type in all cases: cell-based, human
HMEC cells = test: Cell growth assay (CellTiter 96), drug IC50 in HMEC transfected with LAPTM4B-HA or YWHAZ-HA; settings: for effect of exogenous LAPTM4B or YWHAZ on sensitivity to drug: HMEC expressing exogenous LAPTM4B or YWHAZ
Source text: The full length LAPTM4B and YWHAZ cDNAs linked to an HA tag were cloned into the pWZL (Boehm et al. (2005) Mol. Cell. Biol. 25, 6464-6474) and pBabe vectors, respectively, and packaged using the Phoenix™ Retroviral System from Orbigen. pWZL-LAPTM4B HA and pBabe-YWHAZ-HA were introduced into HMEC cells by retroviral infection and stably selected with blasticidin and puromycin, respectively.
(§1) Viable cell number was quantified using CellTiter 96® Aqueous One Solution Cell Proliferation Assay (Promega). Results are reported as optical density at 490 nm wavelength. Cells (4,000 well^−1) were seeded into 96-well plates in triplicate. siRNA transfections were performed 24 h after cell seeding. Chemotherapeutic drugs (daunorubicin, doxorubicin, paclitaxel, and cisplatin) were added 24 h after cell seeding or siRNA transfection. Cells were exposed to a series of concentrations of individual drugs for additional 48 h. Results are presented as the percentage of viable cells in drug-treated wells vs. media-treated control wells and plotted as a drug-dose dependent cell survive curve. The dose of drug causing a fifty percent reduction of viable cells (IC50) determined drug sensitivity. Drug-induced apoptosis was evaluated 48 h after drug treatment (doxorubicin at 1 μM or cisplatin at 25 μM) following siRNA transfection by detection of active caspase 3 and cleaved poly(ADP-ribose) polymerase (PARP) by Western blot analysis using caspase 3- and PARP-specific antibodies (Cell Signaling Technology), respectively.

[1] = system: MDA-MB-231 (MDA231), HCC38 and CAMA-1; test: Cell growth assay, drug sensitivity after LAPTM4B/YWHAZ siRNA knockdown; settings: siRNA knockdown vs control siRNA
Experimental: Gene-specific and negative control oligonucleotides (Stealth™ Select RNAi, Invitrogen) were transfected using the Lipofectamine™ RNAi MAX protocol from Invitrogen. Three gene-specific oligonucleotide siRNAs were tested for each gene (LAPTM4b siRNA1: 5′-[…]-3′ and 3′-[…]-5′; LAPTM4b siRNA2: 5′-[…]-3′ and 3′-[…]-5′; LAPTM4b siRNA3: 5′-[…]-3′ and 3′-[…]-5′; LAPTM4b shRNA: Top strand, […], Bottom strand, […]; YWHAZ siRNA1: 5′-[…]-3′ and 3′-[…]-5′; YWHAZ siRNA2: 5′-[…]-3′ and 3′-[…]-5′; and YWHAZ siRNA3: 5′-[…]-3′ and 3′-[…]-5′). Transfections were performed in triplicate and the experiment was repeated four times to estimate the effect and standard deviation from the mean. Because specific antibodies were not available for the 12 genes tested, the effectiveness of siRNA knockdown by each oligonucleotide was determined by qRT-PCR assay of mRNA levels according to methods described herein.
as §1

BT549 cells [2] = test: Cathepsin release and Bid, caspase 3, PARP cleavage by immunoblot; settings: for LAPTM4B knockdown-induced Bid truncation and apoptosis: BT549 pretreated with cathepsin inhibitors
Experimental: Cytosolic extraction was performed using the detergent digitonin which permeabilizes cholesterol-rich membranes such as plasma membrane, leaving the cholesterol-poor membranes of lysosomes and mitochondria more or less intact. Cells were exposed to an extraction buffer (250 mM sucrose, 20 mM Hepes, 10 mM KCl, 1.5 mM MgCl2, 1 mM EDTA, 1 mM EGTA, and 1 mM Pefabloc, pH 7.5) containing 25 μg/ml digitonin for 20 min on ice, inverting the tubes every 2 min. The extraction buffer was collected and proteins were precipitated by addition of 5% trichloric acid on ice for 10 min and centrifuged at ˜20,800×g for 15 min to obtain the protein pellet. The pellet was dissolved in lysis buffer.
Tumor cell line lysates or cytosols were fractionated in 7, 12 or 14% SDS-PAGE, electrophoretically transferred to a nitrocellulose membrane and probed with primary antibodies (monoclonal Anti-β-Actin antibody (Sigma), anti-Bid (BD PharMingen), anti-caspase 3, anti-H is, anti-LC3 and anti-PARP antibodies (Cell Signaling Technology), and anti-cathepsin B, anti-cathepsin D, anti-p62, HRP-conjugated secondary antibodies and FITC-conjugated secondary antibodies (Abcam). The probed proteins were visualized using the ECL Western blotting detection system from Pierce according to the manufacturer's instructions. Band densities were quantified on a AlphaImager HP imaging system (Cell Biosciences).

[3] = system: MDA-MB-231 (MDA231) and BT549 cells; test: Drug-induced apoptosis, Western blot for active caspase 3 and cleaved PARP; settings: doxorubicin 1 μM or cisplatin 25 μM, 48 h
Experimental: as §1

BT549 cells [4] = test: Cellular distribution of doxorubicin (autofluorescence, confocal)
Experimental: Twenty-four h after transfection with specific siRNA or control oligos, cells were challenged with 0.5 μM doxorubicin in complete medium for 24 h. After 24 h, the drug was removed and cells were cultured in fresh drug-free medium and examined at 36 and 48 h time points. At each time point, cells were washed twice in PBS, and fixed for 5 min in 3.0% paraformaldehyde and permeabilized in 0.1% Triton X-100 for 5 min. Following washing with PBS, cells were mounted in Prolong Gold® anti-fade reagent with DAPI (Invitrogen). Subcellular localization of doxorubicin was viewed by the Rhodamine (Cy3) channel and nuclear staining was viewed by the DAPI channel on a Zeiss HAL100 fluorescence microscope.
Forty-eight hours after transfection with specific siRNA or scramble control oligonucleotide, cells were treated with 0.1 μM doxorubicin in complete medium for 24 hours. After 24 hours of drug exposure, the drug was removed and cells were cultured in fresh drug-free medium and examined 24 hours later. Cells were washed, fixed and stained with DAPI as described in Li et al. (2010) Nat. Med., 16, 214-218. Subcellular localization of doxorubicin autofluorescence (excited wave: 480 nm; emitted wave: 560-620 nm) and lysosomes indicated by LysoTracker DND-26 (excited wave: 504 nm; emitted wave: 509-540 nm) was examined on a Leica SP5X Laser Scanning Confocal Microscope with a white light laser.

MDA-MB-231 cells = test: Cellular distribution of doxorubicin (autofluorescence); settings: 0.5 μM doxorubicin; detectable within 12 h to 24 h, sustained at 48 h
MDA468 cells = test: Autophagy markers LC3 and p62 by immunoblot, LAPTM4B overexpression; settings: MDA468 with stable LAPTM4B over expression
Source text: Band densities were quantified on a AlphaImager HP imaging system (Cell Biosciences).

[5] = BT549 pretreated with pan-caspase inhibitor

Molecule: CC(=O)O[C@H]1C(=O)[C@@]2(C)[C@H]([C@H](OC(=O)c3ccccc3)[C@]3(O)C[C@H](OC(=O)[C@H](O)[C@@H](NC(=O)c4ccccc4)c4ccccc4)C(C)=C1C3(C)C)[C@]1(OC(C)=O)CO[C@@H]1C[C@@H]2O [paclitaxel]
- effect of exogenous LAPTM4B or YWHAZ on sensitivity to drug (HMEC cells): no significant effect
- sensitivity to drug after specific knockdown of LAPTM4B and YWHAZ [1]: weaker or no effect

Molecule: COc1cccc2c1C(=O)c1c(O)c3c(c(O)c1C2=O)C[C@@](O)(C(C)=O)C[C@@H]3O[C@H]1C[C@H](N)[C@H](O)[C@H](C)O1 [daunorubicin]
- sensitivity to drug after specific knockdown of LAPTM4B and YWHAZ [1]: increased sensitivity

Molecule: CCOC(=O)[C@H]1O[C@@H]1C(=O)N[C@@H](CC(C)C)C(=O)NCCC(C)C (relative stereo) [EST, trans-epoxysuccinyl-L-leucylamindo-3-methylbutane ethyl ester]
- LAPTM4B knockdown-induced Bid truncation and apoptosis (BT549 cells [2]): protected

Molecule: z-Val-Ala-Asp-fluoromethylketone [z-VAD-FMK]
- Bid truncation after LAPTM4B knockdown (BT549 cells [2]; [5]): did not prevent Bid truncation
- caspase 3 activation after LAPTM4B knockdown (BT549 cells [2]; [5]): sufficient to abrogate caspase 3 activation

Molecule: COc1cccc2c1C(=O)c1c(O)c3c(c(O)c1C2=O)C[C@@](O)(C(=O)CO)C[C@@H]3O[C@H]1C[C@H](N)[C@H](O)[C@H](C)O1 [doxorubicin]
- increase in IC50 of doxorubicin (HMEC cells; HMEC expressing exogenous LAPTM4B vs control vector, P<0.002): 270%
- increase in IC50 of doxorubicin (HMEC cells; HMEC expressing exogenous YWHAZ vs control vector, P=0.0001): 394%
- sensitivity to drug after specific knockdown of LAPTM4B and YWHAZ [1]: increased sensitivity
- drug-induced apoptosis after knockdown of LAPTM4B or YWHAZ [3]: considerably increased
- doxorubicin distribution after down-regulation of LAPTM4B (BT549 cells [4]; BT549, LAPTM4B-specific siRNA, 48 hours exposure): release of doxorubicin from lysosomes
- intracellular distribution of doxorubicin autofluorescence (BT549 cells [4]; BT549 overexpressing LAPTM4B, Lysotracker green DND-26): co-localizes with the lysosome marker
- nuclear localization of doxorubicin after LAPTM4B siRNA knockdown (MDA-MB-231 cells): substantial increase in nuclear localization

Molecule: CCN(CC)CCCC(C)Nc1ccnc2cc(Cl)ccc12 (stereo not drawn) [chloroquine]
- starvation-induced autophagy (higher LC3II, lower p62) by LAPTM4B over expression (MDA468 cells): blocked

Molecule: pepstatin A
- LAPTM4B knockdown-induced Bid truncation and apoptosis (BT549 cells [2]): protected

Molecule: N.N.[Cl][Pt][Cl] [cisplatin]
- effect of exogenous LAPTM4B or YWHAZ on sensitivity to drug (HMEC cells): no significant effect
- sensitivity to drug after specific knockdown of LAPTM4B and YWHAZ [1]: weaker or no effect
- drug-induced apoptosis after knockdown of LAPTM4B or YWHAZ [3]: less apparent
